{
  "source": "paper PMC3280214",
  "about": "“Structure Based Discovery of Small Molecules to Regulate the Activity of Human Insulin Degrading Enzyme” (PLoS ONE, 2012)",
  "molecular_target": "T1, mutant IDE (Gln363Ala) (Homo sapiens, UniProt P14735, Q363A)",
  "T1 construct": "made in house; host or cells: E. coli (BL21 inferred, as for the wild type)",
  "T1 sequence (P14735 1-1019 Q363A)": "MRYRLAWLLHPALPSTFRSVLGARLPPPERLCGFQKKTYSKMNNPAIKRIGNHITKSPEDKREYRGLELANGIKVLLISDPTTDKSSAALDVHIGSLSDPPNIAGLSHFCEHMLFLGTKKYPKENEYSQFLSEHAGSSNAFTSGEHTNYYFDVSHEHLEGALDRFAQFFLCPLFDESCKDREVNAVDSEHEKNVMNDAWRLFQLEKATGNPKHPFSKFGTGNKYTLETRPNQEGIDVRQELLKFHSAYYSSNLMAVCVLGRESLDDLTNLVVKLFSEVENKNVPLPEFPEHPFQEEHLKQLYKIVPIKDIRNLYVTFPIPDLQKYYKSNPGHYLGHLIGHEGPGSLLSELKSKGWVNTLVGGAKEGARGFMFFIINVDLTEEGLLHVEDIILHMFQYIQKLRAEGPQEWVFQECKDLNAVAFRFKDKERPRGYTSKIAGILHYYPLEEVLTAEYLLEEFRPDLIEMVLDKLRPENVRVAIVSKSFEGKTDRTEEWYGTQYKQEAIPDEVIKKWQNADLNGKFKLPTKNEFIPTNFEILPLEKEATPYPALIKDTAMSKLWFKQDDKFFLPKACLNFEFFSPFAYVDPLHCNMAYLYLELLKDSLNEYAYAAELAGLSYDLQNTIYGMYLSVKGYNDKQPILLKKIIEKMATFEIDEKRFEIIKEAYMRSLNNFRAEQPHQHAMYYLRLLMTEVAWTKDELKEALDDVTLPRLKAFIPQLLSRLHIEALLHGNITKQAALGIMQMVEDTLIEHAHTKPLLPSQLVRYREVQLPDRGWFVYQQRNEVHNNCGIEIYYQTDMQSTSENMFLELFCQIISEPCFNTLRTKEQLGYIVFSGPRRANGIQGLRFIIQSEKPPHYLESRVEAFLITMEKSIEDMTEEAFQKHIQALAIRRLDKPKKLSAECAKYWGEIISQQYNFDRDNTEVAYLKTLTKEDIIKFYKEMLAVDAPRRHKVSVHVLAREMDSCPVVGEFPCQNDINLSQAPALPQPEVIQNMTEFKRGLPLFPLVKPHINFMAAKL",
  "experiment": "FITC-insulin-mAb degradation by mutant IDE (Gln363Ala)",
  "type": "biochemical",
  "conditions": "Gln363Ala vs wild type IDE; 20 µM D10",
  "excerpt": "Since D10 has been found as the strongest activator of IDE towards the proteolysis of insulin, we analyzed the binding site of the compound D10 for the further analysis. According to the computational results, D10 binds to Gln363 at the IDE exosite and His332 (Fig. 1D). We carried out site-directed mutagenesis by replacing these amino acids into Ala in order to verify that D10 indeed binds to this region via these amino acids. We first mutated Gln363 to Ala and then expressed and purified mutant protein through nickel resin. The effect of D10 on the proteolytic activity of mutant IDE (Gln363Ala) was measured towards FITC-insulin-mAb degradation. […] The activation was about 49-fold in the presence of D10 with wild type IDE (Fig. 2B). Although mutant IDE activity was less responsive to D10 compound compared to wild type IDE, it appeared as if D10 were interacting with IDE through […] and could enhance the activity of mutant IDE. […]\nThe utility of these novel compounds were tested on degradation of insulin by IDE. […] The proteolysis of insulin by IDE was monitored by measuring the changes in fluorescence, where the reaction was carried out with 100 nM of FITC- insulin-mAb and IDE (80 ng) in 100 µl KH2PO4 buffer at a pH of 7.3. […] The increase in fluorescence was monitored by using Fluoroskan Ascent FL microplate reader (Thermo).",
  "data": [
    {"smiles": "Cc1nn(-c2ccccc2)c2nc(-c3cccc([N+](=O)[O-])c3)n3c4ccccc4nc3c2c1=O", "note": "[Compound D10]", "values": [
      {"measurement": "reduction of compound-enhanced activation with mutant IDE", "value": 10, "unit": "fold"}
    ]}
  ]
}
